Measured values: US5756480A, “Treatment of hyperandrogenic conditions” (Merck & Co., Inc., priority 1996, dated 1998)
“Also recorded” adds a separate entry of the source. Where two headings read alike, the source gives them in different places.

Assays:
[1] = system: human prostate (type 2) 5α-reductase; conditions: result in words, cited from earlier work
[2] = system: human prostate (type 2) isozyme; conditions: cited from earlier work
[3] = system: human skin (type 1) isozyme; conditions: cited from earlier work
[4] = system: dihydrotestosterone levels; conditions: circulating finasteride concentrations comparable to Ki = 26 nM; result in words; cited from earlier work
type 2 5α-reductase = target: T1, type 2 5α-reductase (Homo sapiens, UniProt P31213); test: Progress curves of DHT formation, slow-binding inhibition of baculovirus-expressed type 2 5α-reductase; type: biochemical
T1 construct: made in house
T1 sequence (P31213 1-254): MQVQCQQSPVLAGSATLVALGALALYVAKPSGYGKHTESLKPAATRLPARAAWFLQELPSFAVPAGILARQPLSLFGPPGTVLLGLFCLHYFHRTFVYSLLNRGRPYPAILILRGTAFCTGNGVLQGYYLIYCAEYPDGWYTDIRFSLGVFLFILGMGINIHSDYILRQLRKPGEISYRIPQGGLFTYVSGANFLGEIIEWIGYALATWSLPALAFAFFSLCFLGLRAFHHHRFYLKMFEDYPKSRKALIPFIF
Protocol: Ethanol is included at 1% final concentration as the vehicle for introduction of inhibitors. The rate of production of [^3 H]dihydrotestosterone is approximately constant for up to 2 hours or 10% consumption of substrate. A unit of enzyme activity was defined as 1 pmol product/min, and is equal to 444 fmol enzyme under these conditions.
After quenching the reactions with an equal volume, or more, of water containing 1% trifluoroacetic acid, the [^3 H]dihydrotestosterone is isolated by direct injection onto a reverse phase C-18 column (Vydac, 4.6×250 mm, 300 Å, 5 micron), which is run in an isocratic system of 40% water (containing 0.1% trifluoroacetic acid) and 60% methanol at 1 mL/min. When tissue extracts are the source of enzyme, the quenched reactions are clarified by centrifugation at 10,000×g before analysis. Retention times are ~13 min for testosterone and ~20 min for dihydrotestosterone. The effluent containing the [^3 H]dihydrotestosterone peak (6 mL) is collected in a liquid scintillation vial and counted with AQUASOL 2 (14 mL, New England Nuclear) with an efficiency of 0.309. The assay is completely automated using a SUN SPARKSTATION 2 computer interfaced to a ZYMARK robot and ancillary equipment.
The native human enzyme was from prostate (type 2) or scalp (type 1) tissue, and the recombinant human enzymes were produced by the baculovirus expression system of Andersson, et al. (Chan, H. K., Geissler, W. M., Andersson, S., Sex Hormones and Antihormones in Endocrine Dependent Pathology: Basic and Clinical Aspects, M. Motta and M. Serio, eds., Elsevier Science 1994). […] Enzyme concentrations were determined by titration with finasteride, or [^3 H]finasteride, or from catalytic activity using kcat and Km values.
Alternatively, fractions may be collected and the samples counted on a scintillation counter. […] The time courses were fit to an integrated first-order rate equation (Equation 1), where A is product concentration, vo is the initial velocity, vs is the infinite-time velocity, and kobs is the first-order rate constant for progression of the enzyme between the two equilibrium states. […] (Ki=koff /kon).
A=vs t+(vo -vs)(1-e-^k obs^t)/kobs +Ao Equation

type 1 5α-reductase = test: Kinetic constants of type 1 5α-reductase; type: biochemical, human
From the text: (§1) Ethanol is included at 1% final concentration as the vehicle for introduction of inhibitors. […] A unit of enzyme activity was defined as 1 pmol product/min, and is equal to 444 fmol enzyme under these conditions.
(§2) The molecular weight was taken to be about 30,000 in estimating enzyme purity.

[5] = substrate: C[C@]12CC[C@H]3[C@@H](CCC4=CC(=O)CC[C@@]43C)[C@@H]1CC[C@@H]2O; test: purified protein, by the assay type; conditions: other: baculovirus-expressed type 2 enzyme, pH 7.2, 37° C.
From the text: as §1, §2

## CC(C)(C)NC(=O)[C@H]1CC[C@H]2[C@@H]3CC[C@H]4NC(=O)C=C[C@]4(C)[C@H]3CC[C@]12C [Finasteride, 17β-(N-tert-butylcarbamoyl)-3-oxo-4-aza-5α-androst-1-ene-3-one]
[1]
  inhibition of human prostate (type 2) enzyme: potent inhibitor of the human prostate enzyme
[1]; listed as finasteride
  inhibition of human prostate (type 2) enzyme: potently inhibited by finasteride
[2]; Faller et al. 1993
  rate constant for binding to the human prostate isozyme: 270000 M⁻¹ s⁻¹
[2]; human prostate (type 2) isozyme, result in words
  binding behavior / reversibility: slow-binding inhibitors; also recorded: essentially irreversible enzyme-inhibitor complex
[2]; printed as Ki <<1 nM, essentially irreversible complex, Faller et al. 1993
  Ki: < 1 nM
[3]; result in words, listed as finasteride
  inhibition of human skin (type 1) isozyme: relatively insensitive to finasteride; also recorded: not a significant inhibitor of human skin (type 1) isozyme at doses employed in the treatment of BPH
[3]; type 1, Tian et al. 1994
  second-order rate constant for formation of the complex: 4000 M⁻¹ s⁻¹
[4]
  reduction of dihydrotestosterone levels: reduced levels of dihydrotestosterone to values approaching those found in individuals genetically deficient in the prostate isozyme

## CCN(CC)C(=O)[C@H]1CC[C@H]2[C@@H]3CC[C@H]4OC(=O)C=C[C@]4(C)[C@H]3CC[C@]12C [L-682,299, 17β-(N-diethyl)carbamoyl-4-oxa-5α-androst-1-en-3-one]
Type 2 5α-reductase
  Ki: < 0.1 nM
Type 2 5α-reductase; 20 nM inhibitor, pH 7.2, 37° C.
  velocity at infinite-time (vs): essentially zero
Type 2 5α-reductase; 20 nM inhibitor, pH 7.2, 37° C., result in words
  inhibition over time: the inhibition developed slowly with time and resulted in total inhibition of the enzyme
Type 2 5α-reductase; pH 7.2, read-out: second-order rate constant for binding to the type 2 isozyme
  kon at 0.02 µM: 56000 M⁻¹ s⁻¹

## C[C@]12CC[C@H]3[C@@H](CCC4=CC(=O)CC[C@@]43C)[C@@H]1CC[C@@H]2O [testosterone]
Type 1 5α-reductase
  Km: 7 µM
  kcat for the type 1 enzyme: 1.4 s⁻¹

B1: type 2 5α-reductase (Homo sapiens) (protein)
chain: T1 sequence (P31213 1-254)
[5]
  Km: 0.0246 ± 0.0007 µM
  kcat: 0.075 ± 0.006 s⁻¹
  kcat/Km: 2.99±0.32×10^6 M^-1 s^-1
